Assay results as given in the NIST ThermoML archive (doi:10.1016/j.jct.2012.08.010).

Assay: xn = mol fraction of the nth substance listed
Conditions: 101 kPa, Liquid, Vibrating tube method

C=C[Si]1(C)O[Si](C)(C=C)O[Si](C)(C=C)O[Si](C)(C=C)O1 (stereo not given) [2,4,6,8-tetramethyl-2,4,6,8-tetravinylcycloterasiloxane] + Cc1cccc(C)c1
mass density [kg/m3]
Conditions | 288.15 K | 298.15 K | 308.15 K | 318.15 K | 328.15 K
x1 = 0.05 | 885.05 | 876.18 | 867.36 | 858.49 | 849.53
x1 = 0.1062 | 900.56 | 891.58 | 882.48 | 873.4 | 864.24
x1 = 0.1505 | 910.91 | 901.78 | 892.55 | 883.33 | 874.04
x1 = 0.2005 | 921.17 | 911.87 | 902.51 | 893.18 | 883.77
x1 = 0.2501 | 930.07 | 920.57 | 911.13 | 901.66 | 892.14
x1 = 0.3023 | 938.25 | 928.62 | 919.04 | 909.46 | 899.85
x1 = 0.3442 | 944.08 | 934.35 | 924.72 | 915.05 | 905.37
x1 = 0.3985 | 950.83 | 941.02 | 931.29 | 921.55 | 911.8
x1 = 0.4491 | 956.41 | 946.51 | 936.74 | 926.91 | 917.12
x1 = 0.499 | 961.37 | 951.41 | 941.59 | 931.69 | 921.85
x1 = 0.5495 | 965.9 | 955.89 | 946 | 936.07 | 926.17
x1 = 0.5981 | 969.84 | 959.8 | 949.86 | 939.92 | 929.94
x1 = 0.6498 | 973.72 | 963.58 | 953.57 | 943.62 | 933.58
x1 = 0.6946 | 976.79 | 966.61 | 956.57 | 946.59 | 936.5
x1 = 0.7483 | 980.15 | 969.99 | 959.9 | 949.87 | 939.74
x1 = 0.7983 | 983.05 | 972.9 | 962.78 | 952.69 | 942.58
x1 = 0.8489 | 985.74 | 975.61 | 965.47 | 955.35 | 945.21
x1 = 0.9463 | 990.44 | 980.3 | 970.11 | 959.94 | 949.75
x1 = 1 | 992.74 | 982.54 | 972.34 | 962.14 | 951.94

C=C[Si]1(C)O[Si](C)(C=C)O[Si](C)(C=C)O[Si](C)(C=C)O1 (stereo not given) [2,4,6,8-tetramethyl-2,4,6,8-tetravinylcycloterasiloxane] + Cc1ccccc1C
mass density [kg/m3]
Conditions | 288.15 K | 298.15 K | 308.15 K | 318.15 K | 328.15 K
x1 = 0.0501 | 899.27 | 890.61 | 882.01 | 873.28 | 864.53
x1 = 0.1045 | 912.95 | 904.03 | 895.21 | 886.26 | 877.4
x1 = 0.1503 | 922.61 | 913.54 | 904.57 | 895.48 | 886.45
x1 = 0.2004 | 931.72 | 922.5 | 913.37 | 904.14 | 894.98
x1 = 0.2501 | 939.54 | 930.19 | 920.94 | 911.57 | 902.32
x1 = 0.3022 | 946.69 | 937.18 | 927.81 | 918.32 | 909.02
x1 = 0.3443 | 951.7 | 942.14 | 932.7 | 923.13 | 913.69
x1 = 0.3987 | 957.55 | 947.88 | 938.35 | 928.69 | 919.16
x1 = 0.4487 | 962.3 | 952.55 | 942.93 | 933.19 | 923.59
x1 = 0.499 | 966.62 | 956.77 | 947.08 | 937.26 | 927.63
x1 = 0.549 | 970.42 | 960.52 | 950.76 | 940.89 | 931.18
x1 = 0.598 | 973.72 | 963.78 | 954.02 | 944.1 | 934.32
x1 = 0.6483 | 976.93 | 966.95 | 957.08 | 947.12 | 937.26
x1 = 0.6945 | 979.61 | 969.55 | 959.65 | 949.64 | 939.74
x1 = 0.7483 | 982.42 | 972.33 | 962.38 | 952.33 | 942.34
x1 = 0.7987 | 984.81 | 974.7 | 964.71 | 954.64 | 944.57
x1 = 0.8489 | 987.06 | 976.91 | 966.88 | 956.77 | 946.68
x1 = 0.9426 | 990.76 | 980.56 | 970.47 | 960.3 | 950.08
x1 = 1 | 992.74 | 982.54 | 972.34 | 962.14 | 951.94
